Literature values, collected in patent US20250051276A1 (priority 2021, published 2025).

Assays:
[1] = system: 5HT2A sensor; details: cited from earlier work
[2] = system: 5HT2A sensor; details: cited from earlier work; remark: listed apart in the source
[3] = system: mice; details: hallucinogenic potential; cited from earlier work

| SMILES | activation of the 5HT2A sensor assay in agonist mode [1] | competition with 5-HT in the 5HT2A sensor assay in antagonist mode [2] | head-twitch response (HTR) [3] |
| --- | --- | --- | --- |
| CCN(CC)C(=O)[C@@H]1C=C2c3cccc4[nH]c(Br)c(c34)C[C@H]2N(C)C1 [BOL148] | do not activate the 5HT2A sensor assay in agonist mode | can compete with 5HT binding to 5HT2A |  |
| COc1ccc2[nH]cc(CCN(C)C)c2c1 [Compound 5-MeO-DMT, 5-MeO-DMT] | activate the 5HT2A sensor assay in agonist mode |  | produces a robust, dose-dependent head-twitch response |
| CCN(CC)CCc1c[nH]c2cc(F)ccc12 [Compound 6-F-DET, 6-F-DET] | do not activate the 5HT2A sensor assay in agonist mode | can compete with 5HT binding to 5HT2A |  |
| COc1ccc2c(CCN(C)C)c[nH]c2c1 [Compound 6-MeO-DMT, 6-MeO-DMT] | do not activate the 5HT2A sensor assay in agonist mode | compete off 5-HT | does not produce a HTR |
| O=C(c1ccc(F)cc1)C1CCN(CCn2c(=O)[nH]c3ccccc3c2=O)CC1 [Ketanserin] | do not activate the 5HT2A sensor assay in agonist mode | can compete with 5HT binding to 5HT2A |  |
| CN[C@H](C)Cc1ccc2c(c1)OCO2 [L-MDMA] | do not activate the 5HT2A sensor assay in agonist mode |  |  |
| CCN(CC)C(=O)[C@@H]1C=C2c3cccc4[nH]cc(c34)C[C@H]2N(C)C1 [LSD] | activate the 5HT2A sensor assay in agonist mode |  |  |
